Literature values in patent US6759057B1, “Methods and compositions using liposome-encapsulated non-steroidal anti-inflammatory drugs” (The Liposome Company, Inc., priority 1986, dated 2004).

Tested on: rat stomach mucosa
Settings: rats dosed with Prostaglandin E2

In the case of `CCCCC[C@H](O)/C=C/[C@H]1[C@H](O)CC(=O)[C@@H]1C/C=C\CCCC(=O)O` [Prostaglandin E2], the “increase in the major gastric surface protective surfactant” value is given as 2-6 fold.
